Legend:
[1] = Binding affinity to MG.C-20 DNA duplex by CD titration
[2] = Binding affinity to T.A-20 DNA duplex by CD titration
[3] = Binding affinity to OG.A-20 DNA duplex by CD titration
[4] = Binding affinity to AP.A-20 DNA duplex by CD titration
[5] = Binding affinity to G.A-20 DNA duplex by CD titration

Work on `Cn1cc(NC(=O)c2cc(NC(=O)c3cc(NC=O)cn3C)cn2C)cc1C(=O)NCCC(=N)N` [STALLIMYCIN] yielded a Kd [1] of 7600 nM, a Kd [2] of 370 nM and a Kd [3] of 200 nM. It also gave a Kd [4] of 2000 nM and a Kd [5] of 3700 nM.

— ChEMBL document CHEMBL1140769, “Characterization of distamycin A binding to damaged DNA” (Bioorg Med Chem, 2008)
